Assays:
[1] = logP by reversed-phase HPLC (EEC Directive 79/831 Annex V.A8), acidic range; format: physicochemical; conditions: reversed-phase column (C 18), 43° C.; a) acidic range: 0.1% aqueous phosphoric acid, acetonitrile, linear gradient 10% to 90%
Experimental: The logP values given in Table 1 were determined in accordance with EEC Directive 79/831 Annex V.A8 by HPLC (High Performance Liquid Chromatography) using a reversed-phase column (C 18). Temperature: 43° C. • (a) Mobile phases for the determination in the acidic range: 0.1% aqueous phosphoric acid, acetonitrile; linear gradient from 10% acetonitrile to 90% acetonitrile—the corresponding data are labelled ^a) in Table 1. • (b) Mobile phases for the determination in the neutral range: 0.01 molar aqueous phosphate buffer solution, acetonitrile; linear gradient from 10% acetonitrile to 90% acetonitrile—corresponding data are labelled ^b) in Table 1.
Calibration was carried out using unbranched alkan-2-ones (having 3 to 16 carbon atoms), with known logP values (determination of the logP values by the retention times using linear interpolation between two successive alkanones).

weeds [2] = assay: Post-emergence test (Example B), herbicidal activity; format: in vivo; conditions: test plants 5-15 cm sprayed, rated after three weeks
Experimental: (§1) • Solvent: 5 parts by weight of acetone • Emulsifier: 1 part by weight of alkilaryl polyglycol ether
(§2) To produce a suitable preparation of active compound, 1 part by weight of active compound is mixed with the stated amount of solvent, the stated amount of emulsifier is added and the concentrate is diluted with water to the desired concentration.
(§3) Test plants of a height of 5-15 cm are sprayed with the preparation of active compound such that the particular amounts of active compound desired are applied per unit area. The concentration of the spray liquor is chosen such that the particular amounts of active compound desired are applied in 1000 l of water/ha.
(§4) After three weeks, the degree of damage to the plants is rated in % damage in comparison to the development of the untreated control.
(§5) The figures denote: • 0%=no effect (like untreated control) • 100%=total destruction

maize [3] = assay: Post-emergence test (Example B), crop plant tolerance, maize; format: in vivo; conditions: rated after three weeks
Experimental: as §1, §2, §3, §4, §5

wheat = assay: Post-emergence test (Example B), crop plant tolerance, wheat; format: in vivo; conditions: rated after three weeks
Experimental: as §1, §2, §3, §4, §5

weeds [4] = assay: Pre-emergence test (Example A), herbicidal activity; format: in vivo; conditions: soil sprayed 24 hours after sowing, rated after three weeks
Experimental: as §1, §2
(§6) Seeds of the test plants are sown in normal soil. After 24 hours, the soil is sprayed with the preparation of active compound such that the particular amount of active compound desired is applied per unit area. The concentration of active compound in the spray liquor is chosen such that the particular amount of active compound desired is applied in 1000 litres of water per hectare.
(§7) After three weeks, the degree of damage to the plants is rated in % damage in comparison to the development of the untreated control. The figures denote: • 0%=no effect (like untreated control) • 100%=total destruction

maize [5] = assay: Pre-emergence test (Example A), crop plant tolerance; format: in vivo; conditions: rated after three weeks
Experimental: as §1, §2, §6, §7

Row | SMILES | logP [1] | activity against weeds (degree of damage) (weeds [2]) | tolerance by crop plants (maize [3]) | tolerance by crop plants (wheat) | also measured
1 | O=C1CCCC(Sc2ccccc2)=C1C(=O)c1ccc(Cl)c(Cn2nc(C3CC3)n(C3CC3)c2=O)c1Cl [Example 5] | logP = 3.50^a) | strong activity against weeds | tolerated well | tolerated well | 
2 | CN(C)c1nn(Cc2c(Cl)ccc(C(=O)C3=C(Sc4ccccc4)CCCC3=O)c2Cl)c(=O)n1C [Example 13] | logP = 3.10^a) |  |  |  | 
3 | COc1nn(Cc2c(S(C)(=O)=O)ccc(C(=O)C3=C(Sc4ccccc4)CCCC3=O)c2Cl)c(=O)n1C [Example 7] | logP = 2.67^a) |  |  |  | 
4 | CN1CCCN(Cc2c(Cl)ccc(C(=O)C3=C(Sc4ccccc4)CCCC3=O)c2Cl)C1=O [Example 1, 1-[2,6-dichloro-3-[(6-oxo-2-phenylthio-1-cyclohexen-1-yl)-carbonyl]-benzyl]-3-methyl-tetrahydro-2(1H)-pyrimidinone] |  | strong activity against weeds | tolerated well | tolerated well | melting point: 140 °C
5 | CN1CCN(Cc2c(Cl)ccc(C(=O)C3=C(Sc4ccccc4)CCCC3=O)c2Cl)C1=O [Example 2] | logP = 3.02^a) | strong activity against weeds | tolerated well | tolerated well | 
6 | COc1nn(Cc2c(Cl)ccc(C(=O)C3=C(S(=O)(=O)c4ccccc4)CCCC3=O)c2Cl)c(=O)n1C [Example 14] | logP = 2.62^a) |  |  |  | 
7 | CCN1CCN(Cc2c(Cl)ccc(C(=O)C3=C(Sc4ccccc4)CCCC3=O)c2Cl)C1=O [Example 3] | logP = 3.30^a) |  |  |  | 
8 | CC(C)Oc1nn(Cc2c(Cl)ccc(C(=O)C3=C(Sc4ccccc4)CCCC3=O)c2Cl)c(=O)n1C [Example 12] | logP = 3.69^a) |  |  |  | 
9 | CCOn1c(CC)nn(Cc2c(S(C)(=O)=O)ccc(C(=O)C3=C(Sc4ccccc4)CCCC3=O)c2Cl)c1=O [Example 10] | logP = 3.13^a) |  |  |  | 
10 | CC(C)CN1CCN(Cc2c(Cl)ccc(C(=O)C3=C(Sc4ccccc4)CCCC3=O)c2Cl)C1=O [Example 121] | logP = 3.98^a) |  |  |  | 
11 | CN1CCN(Cc2c(S(C)(=O)=O)ccc(C(=O)C3=C(Sc4ccccc4)CCCC3=O)c2Cl)C1=O [Example 8] | logP = 2.56^a) |  |  |  | 
12 | CCCCN1CCN(Cc2c(Cl)ccc(C(=O)C3=C(Sc4ccccc4)CCCC3=O)c2Cl)C1=O [Example 120] | logP = 4.02^a) |  |  |  | 
13 | CCN1CCN(Cc2c(S(C)(=O)=O)ccc(C(=O)C3=C(Sc4ccccc4)CCCC3=O)c2Cl)C1=O [Example 9] | logP = 2.79^a) |  |  |  | 

Continued, in another order:

Row | logP [1] | SMILES | activity against weeds (degree of damage) (weeds [2]) | tolerance by crop plants (maize [3]) | tolerance by crop plants (wheat) | also measured
14 | logP = 2.41^a) | COc1nn(Cc2cc(C(F)(F)F)ccc2C(=O)C2=C(SC)CCCC2=O)c(=O)n1C [Example 19] | strong activity against weeds | tolerated well | tolerated well | 
15 | logP = 3.58^a) | CSc1nn(Cc2cc(C(F)(F)F)ccc2C(=O)C2=C(Sc3ccccc3)CCCC2=O)c(=O)n1C [Example 16] | strong activity against weeds | tolerated well | tolerated well | activity against weeds (degree of damage) (weeds [4]): strong activity against weeds; tolerance by crop plants (maize [5]): tolerated well
16 | logP = 3.06^a) | COc1nn(Cc2c(Cl)ccc(C(=O)C3=C(Sc4ccccc4)CCCC3=O)c2Cl)c(=O)n1C [Example 11] |  |  |  | 
17 | logP = 2.63^a) | CSC1=C(C(=O)c2ccc(C(F)(F)F)cc2Cn2nc(SC)n(C)c2=O)C(=O)CCC1 [Example 17] | strong activity against weeds | tolerated well | tolerated well | 
18 | logP = 3.30^a) | COc1nn(Cc2cc(C(F)(F)F)ccc2C(=O)C2=C(Sc3ccccc3)CCCC2=O)c(=O)n1C [Example 18] | strong activity against weeds | tolerated well | tolerated well | 
19 | logP = 3.29^a) | CSc1nn(Cc2c(Cl)ccc(C(=O)C3=C(Sc4ccccc4)CCCC3=O)c2Cl)c(=O)n1C [Example 4] |  |  |  | 
20 | logP = 2.84^a) | CSc1nn(Cc2c(S(C)(=O)=O)ccc(C(=O)C3=C(Sc4ccccc4)CCCC3=O)c2Cl)c(=O)n1C [Example 6] |  |  |  | 

Source: US6969697B2, “Substituted benzoylcyclohexenones” (Bayer Aktiengesellschaft, priority 2000, dated 2005)
